Reference: patent US9649282B2, “Diversion- and/or abuse-resistant compositions and methods for making the same” (Invincible Biotechnology, LLC, priority 2010, dated 2017)

Assay: Abuse resistance through nasal inhalation: aminophylline in blood serum after intranasal administration to mice (HPLC)
Type: in vivo, male mice (CBA C50 Black F1 line)
Conditions: 10 μL of solution, blood from retro-orbital sinus about 3 to 5 minutes after administration, pool of three mice
Experimental: 10 μL of each experimental solution was administered to a corresponding pool of three mice. About 3 to 5 minutes after administration, blood samples were drawn from the retro-orbital sinuses (sinus retroorbitalis) of the mice, combined and centrifuged for 10 minutes at 3000 rpm. The collected serum was then deproteinized with 0.3 M trichloroacetic acid at a serum to acid ratio of about 0.2 ml to 1.0 ml. To complete the precipitation of proteins, the samples were maintained in a thermostat at 20° C. for about 20 minutes and then filtered through a 0.45 micron acetate cellulose filter. The filtrates were analyzed for aminophylline concentration by injecting 20 μL samples into an HPLC, Schimadzu LC-20AD with photodiode array detector (PDA) and Phenomenex Luna 5μ C18, […] column. Acetonitrile in 0.1M phosphoric acid was used as a Mobile phase with linear gradient of acetonitrile of 1-50% vol., pressure 6.3 Mpa, flow rate 0.5 ml/min, and detector wavelength of about 272 nm.
The chromatograms of serums from Controls 1 and 2 with aminophylline concentration of 4% by weight and 24% by weight are shown in FIGS. 9 and 10, respectively. Similar chromatograms were prepared for all of the samples. The areas of the aminophylline peaks that are proportional to its concentration in the blood taken from the retro-orbital sinus, are presented in Table 6 below: […]

| SMILES | Aminophylline Concentration in Blood Serum [µg/mL] |
| --- | --- |
| Cn1c(=O)c2[nH]cnc2n(C)c1=O [Control-1, aminophylline] | 19.91 |
| Cn1c(=O)c2[nH]cnc2n(C)c1=O [Control-2, aminophylline] | 20.09 |
